Reference: article PMC7616682 (Journal of biological inorganic chemistry : JBIC : a …, 2024)
Converted amounts (≈) assume the structure as drawn. Read-outs that look alike come from different tables or passages of the source.

Columns and labels:
[1] = LogP by shake-flask method (n-octanol/phosphate buffer)
Method: using the "shake-flask" method.[6],[7] In short, phosphate buffer (50 mM, pH 7.4) was saturated with n-octanol by shaking a 1:1 mixture of both solution on a laboratory shaker for 72 h, after which the phases were separated. Stock solutions of each complex were then prepared in dimethylsulfoxide at a concentration of 10 mM. […]
solution with a concentration of 100 µM. From this solution, 1000 µL were transferred into an Eppendorf tube and mixed with 1000 µL of n-octanol. After shaking for 15 min and centrifugation (5 min, 6000 rpm), the two phases were carefully separated, and the contact layer discarded. Then, the absorbance of each phase was recorded with an Agilent 8453 UV/Vis spectrometer.
2 mL solution with a concentration of 100 µM. From this solution, 1000 µL were transferred into an Eppendorf tube and mixed with 1000 µL phosphate buffer. After shaking for 15 min and centrifugation (5 min, 6000 rpm), the phases were carefully separated, and the contact layer discarded. Then, the absorbance of each phase was recorded with an Agilent 8453 UV/Vis spectrometer.

[2] = target: streptavidin (Streptomyces avidinii, UniProt P22629); assay: Isothermal titration calorimetry (ITC) with streptavidin; format: binding; conditions: 25 °C, 10 mM HEPES + 2% DMSO; for Kd: read-out: dissociation constant (Kd) to streptavidin
streptavidin, sequence (P22629 25-183, species assumed): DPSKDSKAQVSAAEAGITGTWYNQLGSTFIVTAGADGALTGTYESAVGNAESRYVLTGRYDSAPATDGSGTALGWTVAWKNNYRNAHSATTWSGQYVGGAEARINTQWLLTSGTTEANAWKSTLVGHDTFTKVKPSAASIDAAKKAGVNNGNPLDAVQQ
Method: Isothermal titration calorimetry
Streptavidin (20 µM in 10 mM HEPES plus 2% DMSO) was titrated stepwise with 2 uL injections of the compound (200 µM in 10 mM HEPES + 2% DMSO) at 25 °C, using a Malvern MicroCal PEAQ-ITC. Raw thermograms (top panels) and the binding isotherm from the integrated thermogram (bottom panels) were fit using the One Set of Sites model in the MicroCal PEAQ-ITC analysis software. Circles indicate the integrated heat, and the curve represents the best fit.
Figure S46: Isothermal titration calorimetry measurements of 5.
(§1) (1 picture or pasted object on this page, not shown here)

[3] = test system: Acinetobacter baumanii ATCC 17978; assay: Rapid screen broth microdilution assay; format: cell-based, Acinetobacter baumannii; conditions: rapid screen without replicates, 24 h, read-out: MIC A. baumannii (Gram negative)
Method: (§2) Antibacterial activity assay
(§3) Rapid screen broth microdilution assay
(§4) 5 × 125 mL Erlenmeyer flasks, each filled with 12.5 mL Mueller Hinton broth II (MHBII), were inoculated with Klebsiella pneumoniae ATCC 13883, Acinetobacter baumanii ATCC 17978, Psuedomonas aeruginosa ATCC BAA-47, Staphylococcus aureus […]
(§5) with 12.5 mL BHI broth was inoculated with Enterococcus faecium ATCC 19434. The cultures were incubated at 37 °C with shaking at 180 rpm for 16 h. The suspensions were diluted 100-fold with the requisite broth (E. faecium: 4-fold) and the resultant suspensions incubated for a further 3 h at 37 °C with shaking. […]
(§6) of 0.8–1.2 after 3 h. Stock solutions of the title compounds were prepared in the requisite broth from 100 mM stocks in DMSO with the exceptions of carbenicillin, which was from a 100 mM stock in water and ciprofloxacin from a 10 mM stock in DMSO.
(§7) 6 × 96 well plates were primed with a concentration gradient of the analytes from 200 to 3.13 µM, carbenicillin from 200 to 3.13 µM and ciprofloxacin from 10 to 0.16 µM. The cells were diluted 100-fold to an OD600 of 0.01. All plates were then inoculated with 50 μL per well bacterial culture in the requisite broth to 100 μL per well. Plates were then incubated at 37 °C for 24 h before reading OD600 on a BMG Clariostar platereader. […]

[4] = test system: Escherichia coli K12 ATCC 10798; assay: Rapid screen broth microdilution assay; format: cell-based; conditions: rapid screen without replicates, 24 h, read-out: MIC E. coli (Gram negative)
Method: as §2, §3, §4, §5, §6, §7

[5] = test system: Klebsiella pneumoniae ATCC 13883; assay: Rapid screen broth microdilution assay; format: cell-based; conditions: rapid screen without replicates, 24 h, read-out: MIC K. pnuemoniae (Gram negative)
Method: as §2, §3, §4, §5, §6, §7

[6] = test system: Psuedomonas aeruginosa ATCC BAA-47; assay: Rapid screen broth microdilution assay; format: cell-based, Pseudomonas aeruginosa; conditions: rapid screen without replicates, 24 h, read-out: MIC P. aeruginosa (Gram negative)
Method: as §2, §3, §4, §5, §6, §7

[7] = test system: E. faecium ATCC 19434; assay: MIC broth microdilution assay; format: cell-based, Enterococcus faecium; conditions: 24 h, read-out: MIC E. faecium (Gram positive)
Method: (§8) Antibacterial activity assay […]
(§9) MIC broth microdilution assay
(§10) 3 × 125 mL Erlenmeyer flasks, each filled with 12.5 mL MHBII, were inoculated with three different colonies of S. aureus NTCC 12973. 3 × 125 mL Erlenmeyer flasks, each filled with 12.5 mL BHI broth, were inoculated with three different colonies of E. faecium ATCC 19434. The cultures were incubated at 37 °C with shaking at 180 rpm for 16 h.
(§11) OD600 of ~2.5. The suspensions of S. aureus cultures were diluted 100-fold with MHBII while the E. faecium cultures were diluted 4-fold. The resultant suspensions were incubated for a further 3 h at 37 °C with shaking. […]
(§12) after 3 h. Stock solutions of the title compounds were prepared in the requisite broth from 100 mM stocks in DMSO with the exception of carbenicillin, which was from a 100 mM stock in water and vancomycin from a 10 mM stock in DMSO. 15 × 96 well plates were primed with concentration gradients of the analytes and carbenicillin as shown in Figure S60 for S. aureus. 15 × 96 well plates were primed with the concentration […]
(§13) μL per well of the relevant bacterial culture in the requisite broth to 100 μL per well.

[8] = test system: S. aureus NTCC 12973; assay: MIC broth microdilution assay; format: cell-based, Staphylococcus aureus; conditions: 24 h, read-out: MIC S. aureus (Gram positive)
Method: as §8, §9, §10, §11, §12, §13
Plates were then incubated at 37 °C for 24 h before reading OD600 on a BMG Clariostar […]
Figure S50: Dose response profiles of the title compounds against S. aureus.
as §1

[9] = test system: BEAS2B (non-cancer lung) cells; assay: Cell viability (DAPI nuclei count); format: cell-based, human; conditions: 48 h
Method: (§14) To determine the relative viability, after incubation cells were fixed and stained with DAPI and the number of nuclei per well determined using a CeligoTM Image Cytometer (Figure S52 to S60). […] page 43: Cell viability studies Compound cytotoxicity was tested simultaneously on five representative cell lines […] All cells were cultured in DMEM Glutamax without pyruvate with 10% fetal bovine serum and 1% penicillin/streptomycin (Gibco). Cells were incubated with the compound for 24 or 48 h […] The tested concentration range for each compound was […] The required […] Greiner CELLSTAR® microplates) using the Echo 550 Acoustic Liquid Handler and wells were back-filled with DMSO when required to keep a final DMSO concentration […] Next, 50 μL of cell solution was added to the compound-containing wells using the Integra® […] Bulk dispenser. Cell solutions were prepared to get 5000 […] cells per well for hTERT RPE-1, and 5000 (24 h)/2500 (48 h) cells per well for BEAS- […] After incubation, cells were fixed with 4% PFA (Merck, […]), permeabilized with […] DAPI (Merck, 10236276001). Viable cells were counted using 377 nm excitation and 447 nm emission filters on the CeligoTM Image Cytometer. The number of nuclei per well was determined using the Direct Cell Count analysis from the CeligoPro Sofware […] All conditions were performed in triplicate. Staurosporine (Cambridge Bioscience, s7600) was used as a positive control and DMSO only as a negative control. The percentage of cell viability was normalized to the DMSO-only control and […] logistic curve with the scipy.optimize.curve_fit function. S43

[10] = test system: HCT116 (colorectal cancer) cells; assay: Cell viability (DAPI nuclei count); format: cell-based, human
Method: as §14

[11] = test system: HaCat (non-cancer skin) cells; assay: Cell viability (DAPI nuclei count); format: cell-based, human; conditions: 48 h
Method: as §14

[12] = test system: HeLa (cervical cancer) cells; assay: Cell viability (DAPI nuclei count); format: cell-based, human; conditions: 48 h
Method: as §14

[13] = test system: RPE1 (retinal pigment epithelial cells); assay: Cell viability (DAPI nuclei count); format: cell-based, human
Method: as §14

[14] = test system: BEASB2, HaCat, RPE1, HCT116 and HeLa cell lines; assay: Cell viability, summary over all cell lines studied; format: cell-based, human; conditions: summary of Table 3, 48 h, read-out: IC50 values, range over all cell lines studied
Method: as §14

[15] = target: T1, avidin (Gallus gallus, UniProt P02701); assay: HABA/avidin assay; format: binding; conditions: titration of HABA/avidin mixture, absorbance at 500 nm
T1 construct: purchased SIGMA-ALDRICH A9275
T1 sequence (P02701 25-152): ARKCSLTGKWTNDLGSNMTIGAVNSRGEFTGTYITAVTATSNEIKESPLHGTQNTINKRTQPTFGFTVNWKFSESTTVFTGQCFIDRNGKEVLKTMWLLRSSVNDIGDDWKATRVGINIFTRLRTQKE
Method: properties towards avidin using the HABA assay.[8] A mixture of avidin (6.8 μM, SIGMA-ALDRICH: A9275) and 4'-hydroxyazobenzene-2-carboxylic acid (HABA, 0.3 mM, SIGMA-ALDRICH: H5126) was dissolved in 50 mM sodium phosphate buffer (20 mL, pH 7.4) and allowed to equilibrate for 24 h at 4 °C. Stock solutions of each compound were prepared in dimethyl sulfoxide at a concentration of 1.1 mM. The […]
to the prepared avidin/HABA mixture (1 mL) at room temperature at 5–10 min intervals […]
absorbance then recorded with an Agilent 8453 UV/Vis spectrometer. The formation of the adduct was indicated by a decrease in the absorbance at 500 nm due to the displacement of HABA from the avidin. By plotting -ΔA500 nm vs. the molar concentration ratio c(compound):c(avidin), the binding stoichiometry of the compound to avidin was determined.

[16] = target: T1, avidin; conditions: cited from earlier work
[17] = shake-flask method, n-octanol/phosphate buffer 50 mM pH 7.4

O=C(C#Cc1ccccc1)CCCC[C@@H]1SC[C@@H]2NC(=O)N[C@@H]21 (stereo in doubt) [Compound 5, 7-[(3aS,4S,6aR)-2-oxohexahydro-1H-thieno-[3,4-d]imidazol-4-yl]-1-phenyl-1-heptyn-3-one]
LogP [1, 17]: highly lipophilic^a | Kd [2]: < 0.001 µM | MIC ([3]; Acinetobacter baumannii, ATCC17978): > 200 µM | MIC ([4]; Escherichia coli, ATCC10798): > 200 µM | MIC ([5]; Klebsiella pneumoniae, ATCC13883): > 200 µM | MIC ([6]; Pseudomonas aeruginosa, ATCCBAA47): > 200 µM | MIC ([7]; Enterococcus faecium, ATCC19434, three colonies): 200 µM (≈ 65.7 µg/mL) | MIC ([8]; Staphylococcus aureus, NTCC12973, three colonies): > 200 µM | IC50 ([9]; Homo sapiens, BEAS-2B): 3.6 µM | IC50 ([10]; Homo sapiens, HCT-116, 48 h): 4 µM | IC50 ([11]; Homo sapiens, HaCaT): 3.3 µM | IC50 ([12]; Homo sapiens, HeLa): 3.3 µM | IC50 ([13]; Homo sapiens, RPE-1, 48 h): 2.4 µM | IC50 ([14]; Homo sapiens): 2 to 4 µM

[Ir(triazolatoC6H5,biotin)(ppy)(terpy]PF6 [Compound 18]
Kd [2]: 0.045 µM | MIC [3]: >200 µM | MIC [4]: >200 µM | MIC [5]: >200 µM | MIC [6]: >200 µM | MIC ([7]; three colonies): 100 µM | MIC ([8]; three colonies): 100 µM | IC50 ([10]; 48 h): > 50 µM | IC50 [11]: > 50 µM | IC50 [12]: > 50 µM | IC50 ([13]; 48 h): 39.7 µM | IC50 [14]: > 35 µM

COC(=O)c1n[n]([Pt+])nc1C(=O)OC.F[P-](F)(F)(F)(F)F.c1ccc(-c2cccc(-c3ccccn3)n2)nc1 [Compound 15]
LogP ([1]; pH 7.4): -1.80 | avidin binding in HABA assay (result in words) [15]: non-specific protein binding | dissociation constant (Kd) to streptavidin [2]: did not bind to streptavidin | MIC [3]: >200 µM | MIC [4]: >200 µM | MIC [5]: >200 µM | MIC [6]: >200 µM | MIC ([7]; three colonies): >200 µM | MIC ([8]; three colonies): >200 µM | IC50 ([10]; 48 h): 6 µM | IC50 [11]: 15.4 µM | IC50 [12]: 15.9 µM | IC50 ([13]; 48 h): 4.9 µM

F[P-](F)(F)(F)(F)F.O=C1N[C@H]2[C@H](CS[C@H]2CCCCC(=O)c2n[n]([Pt+][c]3cccc(-c4cccc(-c5ccccn5)n4)n3)nc2-c2ccccc2)N1 [Compound 16, [Pt(triazolatoC6H5,biotin)(terpy)]PF6]
LogP [1, 17]: -0.78 | Kd [2]: 0.13 µM | MIC [3]: >200 µM | MIC [4]: >200 µM | MIC [5]: >200 µM | MIC [6]: >200 µM | MIC ([7]; three colonies): >200 µM | MIC ([8]; three colonies): >200 µM | IC50 [9]: 8.3 µM | IC50 ([10]; 48 h): 6.8 µM | IC50 [11]: 14.1 µM | IC50 [12]: 13.3 µM | IC50 ([13]; 48 h): 5.2 µM

O=C(O)c1ccccc1N=Nc1ccc(O)cc1 [HABA, 4'-hydroxyazobenzene-2-carboxylic acid]
Kd [16]: 6 µM
